Test results: PMC4381330, “Identification of a novel selective agonist of PPARγ with no promotion of adipogenesis and less inhibition of osteoblastogenesis” (Scientific Reports, 2015)

How the values were obtained:
[1] = tested on: PPARγ target genes in differentiating 3T3-L1 cells; test: Expression of adipogenesis-related and PPARγ-responsive genes in differentiating 3T3-L1 adipocytes (qPCR); type: cell-based, mouse
Method: (§1) 3T3-L1 preadipocytes were grown to confluency in DMEM containing 10% CS. At 2 days post-confluency, the cells were stimulated with differentiation medium (DMEM containing 10% FBS, 10 μg/mL insulin, 1 μM dexamethasone, and 0.5 mM IBMX) for 48 h. Then, the cells were exposed in post-differentiation-maintaining medium (DMEM containing 10% FBS and 10 μg/mL insulin) for a further 48 h, which was replaced with expansion medium (DMEM containing 10% FBS) every 2 days after then. Compounds were added to the post-differentiation and expansion medium. At day 4, the cells were harvested for RNA preparation. At Day 8, the cells were fixed with 10% formaldehyde and stained with Oil red O solution. After washing with water, photos were taken. Solubilized dye was quantified at 550 nm. In addition, total triglyceride of the cells was measured by a total TG measurement kit (Applygene, China). Experiments were performed at least three times.
Total RNA was extracted using TRIzol reagent (Invitrogen). First-strand cDNA was synthesized from the total RNA using a reverse transcriptional kit (TransGen). Quantitative PCR with SYBR Green (Roche Diagnostics, Lewes, UK) was performed on a Stratagene MX3000P real-time PCR system (Agilent). Melting curves were obtained, and the specificity of PCR products was checked on agarose gels. Relative mRNA expression was determined by the ΔΔCt method and normalized to GAPDH mRNA levels.

RXR = test: Receptor-specific transactivation, GAL4-LBD reporter in HEK293T cells; type: cell-based; details: 30 μM F12016
Method: (§2) HEK293T cells were cotransfected with a GAL4-pGL4-luc reporter and plasmids encoding various nuclear receptor LBDs fused with the GAL4 DNA-binding domain. […] LXR, liver X receptor; RXR, retinoid X receptor.
(§3) The determination of nuclear receptor activation was performed as previously. Briefly, HEK293T cells were transfected with GAL4-pGL4-luc reporter plasmid and pBIND-PPARγ-LBD expression plasmid using Lipofectamine 2000 (Invitrogen) for 6 h before treatment with compounds for 20–24 h. Activity was determined by the Luciferase Assay System (Promega).

LXRα = biological target: T1, LXRα (Homo sapiens, UniProt Q13133); test: as above; type: cell-based; details: 30 μM F12016
T1 construct: expressed in transfected cells; host or cells: HEK293T
T1 sequence (Q13133 209-447 limits assumed): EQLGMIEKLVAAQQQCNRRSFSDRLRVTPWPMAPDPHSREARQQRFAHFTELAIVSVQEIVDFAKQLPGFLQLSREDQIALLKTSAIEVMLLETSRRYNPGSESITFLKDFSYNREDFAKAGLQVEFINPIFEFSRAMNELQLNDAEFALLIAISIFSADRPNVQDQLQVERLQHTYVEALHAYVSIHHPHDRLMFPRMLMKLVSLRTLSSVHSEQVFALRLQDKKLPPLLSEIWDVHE
Method: as §2, §3

LXRβ = biological target: T2, LXRβ (Homo sapiens, UniProt P55055); test: as above; type: cell-based; details: 30 μM F12016
T2 construct: expressed in transfected cells; host or cells: HEK293T
T2 sequence (P55055 222-460 limits assumed): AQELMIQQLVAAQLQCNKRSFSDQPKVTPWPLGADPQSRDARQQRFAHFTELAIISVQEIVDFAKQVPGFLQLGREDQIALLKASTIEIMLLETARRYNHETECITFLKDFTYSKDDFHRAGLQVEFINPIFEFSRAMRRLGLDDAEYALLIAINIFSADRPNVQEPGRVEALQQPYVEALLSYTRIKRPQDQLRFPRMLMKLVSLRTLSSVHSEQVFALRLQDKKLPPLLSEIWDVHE
Method: as §2, §3

PPARα = biological target: T3, PPARα (Homo sapiens, UniProt Q07869); test: as above; type: cell-based; details: 30 μM F12016
T3 construct: expressed in transfected cells; host or cells: HEK293T
T3 sequence (Q07869 239-466 limits assumed): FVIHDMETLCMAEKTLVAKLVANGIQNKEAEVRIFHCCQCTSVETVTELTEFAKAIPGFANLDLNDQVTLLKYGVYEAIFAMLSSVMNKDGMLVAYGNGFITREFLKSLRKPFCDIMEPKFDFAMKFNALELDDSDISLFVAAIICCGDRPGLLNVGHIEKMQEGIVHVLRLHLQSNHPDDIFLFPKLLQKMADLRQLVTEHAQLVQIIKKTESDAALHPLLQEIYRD
Method: as §2, §3

MC3T3-E1 preosteoblasts = test: Osteoblastic differentiation of MC3T3-E1 cells (Alizarin red S, Alp activity); type: cell-based; details: F12016 1, 10, 30 μM
Method: MC3T3-E1 cells were cultured in α-MEM to confluency in 24-well plates and then cultured in differentiation medium (α-MEM supplemented with 200 μM ascorbic acid and 10 mM β-glycerophosphate) for 7, 14, and 21 days, which was replaced every 3 days. The cells were treated with DMSO, rosiglitazone, or F12016 at the start of differentiation. At day 8, 15 and 22, total RNA was isolated, and real-time PCR was performed as described below.
Mature osteoblasts were stained with Alizarin red S and Alp activity were measured at day 22. In brief, cells were fixed with 75% ethanol and stained with 40 mM Alizarin red S solution (pH 4.1–4.3) for 10 min. For Alp assay, the cells were harvested and sonicated on ice with two 30s-pulses. Supernatant of lysate was incubated with isopyknic 1.0 mg/ml pNPP (Sigma–aldrich) solution (1 M diethanolamine buffer, 0.5 mM magnesium chloride) for 30 min at 37°C. The reaction was measured at 405 nm. Relative ALP activity was normalized to the protein concentration.

3T3-L1 preadipocytes = test: Adipogenic differentiation of 3T3-L1 preadipocytes (Oil red O, triglyceride content); type: cell-based, mouse
Method: as §1

2-[2-(1, 2-dimethyl-1H-indol-3-yl)-2-oxo-acetylamino]-benzamide [Compound F12016]
AdipQ mRNA expression [1]: increased AdipQ mRNA expression | mRNA levels of 11β-HSD1 [1]: similarly decreased the mRNA levels | transcription of Pdk4 [1]: decreased transcription | expression of fatty acid synthase (Fasn) ([1]; both compounds to a similar extent): upregulated expression | expression of adipogenesis-related genes (CEBP/α, PEPCK, FABP4, CD36, Gyk, Elvol3, Cox7a1) ([1]; compared with rosiglitazone): induced much less expression | induction of lipoprotein lipase (LPL) ([1]; compared with rosiglitazone): less than that induced by rosiglitazone | transactivation of RXR (RXR): no effects | transactivation of LXRα (LXRα): no effects | transactivation of LXRβ (LXRβ): no effects | transactivation of PPARα (PPARα): no effects | alkaline phosphatase (Alp) activity (MC3T3-E1 preosteoblasts): less reductions in mineralization and Alp activity | mineralization (Alizarin Red S) (MC3T3-E1 preosteoblasts): less reductions in mineralization | intracellular triglyceride (TG) content (3T3-L1 preadipocytes; 6 days of stimulation): significantly reduced TG accumulation compared with rosiglitazone | TG content of differentiating adipocytes at 30 μM compared with 10 μM (3T3-L1 preadipocytes; F12016 30 μM vs 10 μM): significantly less than that of 10 μM | lipid accumulation / intracellular lipid droplets (Oil red O staining) (3T3-L1 preadipocytes; RGZ 0.1, 1, 10 μM, F12016 1, 10, 30 μM): significantly reduced potency to form intracellular lipid droplets | lipid droplet size, F12016 vs rosiglitazone (3T3-L1 preadipocytes; supplementary Figure 2): no significant difference
